Data on 10 compounds can be found in US20180000085A1, “USE OF PICOLINAMIDE COMPOUNDS WITH FUNGICIDAL ACTIVITY” (DOW AGROSCIENCES LLC, priority 2014, published 2018).

The test system of one experiment is Puccinia triticina. Nature of the experiment: Wheat brown rust (PUCCRT) disease control on wheat seedlings. In kind it is in vivo. Also on record: key to PUCCRT 3DC, HV activity at 100 ppm (% control rating) / PUCCRT disease control, 3DC / PUCCRT 1DP disease control rating, HV activity / PUCCRT 3DC disease control rating, HV activity / PUCCRT 3DC, LV activity at 125.1 g/H (% Control rating) / PUCCRT 1DP, LV activity at 125.1 g/H (% Control rating) / PUCCRT 3DC disease control rating, LV activity at 125.1 g/H / PUCCRT 1DP disease control rating, LV activity at 125.1 g/H / PUCCRT 3DC disease control rating, HV activity at 100 ppm / PUCCRT 1DP disease control rating, HV activity at 100 ppm / HV activity at 100 ppm PUCCRT 3DC (disease control rating) / LV activity at 125.1 g/H PUCCRT 1DP (disease control rating) / LV activity at 125.1 g/H PUCCRT 3DC (disease control rating): A: > 80; B: ≤ 80; C: Not Tested; D: No Activity Observed in the Reported Assay. Particulars: for PUCCRT 1DP disease control rating, HV activity / PUCCRT 3DC disease control rating, HV activity: HV application at 100 ppm.

For the next experiment, the system named is Zymoseptoria tritici. As to the kind of experiment: Leaf blotch of wheat (SEPTTR) disease control on wheat seedlings. In kind it is in vivo. The conditions noted are these: for SEPTTR 1DP disease control rating, HV activity / SEPTTR 3DC disease control rating, HV activity: HV application at 100 ppm. Set-up: key to SEPTTR 1DP, HV activity at 100 ppm (% control rating) / SEPTTR 3DC, HV activity at 100 ppm (% control rating) / SEPTTR disease control, 1DP / SEPTTR disease control, 3DC / SEPTTR 1DP disease control rating, HV activity / SEPTTR 3DC disease control rating, HV activity / SEPTTR 3DC, LV activity at 125.1 g/H (% Control rating) / SEPTTR 1DP, LV activity at 125.1 g/H (% Control rating) / SEPTTR 1DP disease control rating, LV activity at 125.1 g/H / SEPTTR 3DC disease control rating, LV activity at 125.1 g/H / SEPTTR 3DC disease control rating, HV activity at 100 ppm / SEPTTR 1DP disease control rating, HV activity at 100 ppm / HV activity at 100 ppm SEPTTR 3DC (disease control rating) / HV activity at 100 ppm SEPTTR 1DP (disease control rating) / LV activity at 125.1 g/H SEPTTR 1DP (disease control rating) / LV activity at 125.1 g/H SEPTTR 3DC (disease control rating): A: > 80; B: ≤ 80; C: Not Tested; D: No Activity Observed in the Reported Assay.

Where [1] appears, read: low volume application, 125.1 g/H, 1 day protectant.
[2] abbreviates: low volume application, 125.1 g/H, 3 day curative.
The mark [3] stands for this setting: low volume application, 125.1 g/H, 1 Day Protectant.
Where [4] appears, read: low volume application, 125.1 g/H, 3 Day Curative.
Setting [5] is: 1 Day Protectant, wheat brown rust.
[6] abbreviates: 3 Day Curative, wheat brown rust.
[7] abbreviates: 1 Day Protectant, wheat leaf blotch.
[8] abbreviates: 3 Day Curative, wheat leaf blotch.
[9] abbreviates: high volume application, 100 ppm, 1 day protectant.
Setting [10] is: high volume application, 100 ppm, 3 day curative.

In the case of `CCC(CC)C(Oc1cc(F)ccc1F)C(C)OC(=O)C(CC(C)C)NC(=O)c1nccc(OC)c1OC(C)=O` (stereo not shown) [Cmpd 687], the “PUCCRT 1DP disease control rating, LV activity at 125.1 g/H” value in the experiment with Puccinia triticina (setting [1]) is reported as “D”. Also, in the experiment on Puccinia triticina (setting [2]), the “PUCCRT 3DC disease control rating, LV activity at 125.1 g/H” value is on record as “B (≤ 80)”. Further, the “SEPTTR 1DP disease control rating, LV activity at 125.1 g/H” value in the experiment on Zymoseptoria tritici (setting [1]) is on record as “D”. The “SEPTTR 3DC disease control rating, LV activity at 125.1 g/H” value with Zymoseptoria tritici (setting [2]) is reported as “B (≤ 80)”.

On to `COc1ccnc(C(=O)N[C@@H](C)C(=O)O[C@@H](C)[C@H](Oc2cc(F)cc(Cl)c2)c2ccccc2)c1OCOC(C)=O` [Cmpd 641], for which the “PUCCRT 1DP, LV activity at 125.1 g/H (% Control rating)” value in the experiment on Puccinia triticina (setting [3]) is given as “A (> 80)”. Moreover, the “PUCCRT 3DC, LV activity at 125.1 g/H (% Control rating)” value in the experiment on Puccinia triticina (setting [4]) is on record as “B (≤ 80)”. Further, the “SEPTTR 1DP, LV activity at 125.1 g/H (% Control rating)” value in the experiment with Zymoseptoria tritici (setting [3]) was “A (> 80)”. For the same compound, the “SEPTTR 3DC, LV activity at 125.1 g/H (% Control rating)” value in the experiment on Zymoseptoria tritici (setting [4]) is reported as “A (> 80)”.

Regarding `CCC(CC)C(Oc1ccc(C(F)(F)F)cc1)C(C)OC(=O)C(C)NC(=O)c1nccc(OC)c1O` (stereo not shown) [Cmpd 385], the “PUCCRT 1DP disease control rating, HV activity” value with Puccinia triticina (setting [5]) is listed as “B (≤ 80)”. In addition, the “PUCCRT 3DC disease control rating, HV activity” value in the experiment on Puccinia triticina (setting [6]) is recorded as “A (> 80)”. Besides, the “SEPTTR 1DP disease control rating, HV activity” value in the experiment on Zymoseptoria tritici (setting [7]) is listed as “D”. For the same compound, in the experiment on Zymoseptoria tritici (setting [8]), the “SEPTTR 3DC disease control rating, HV activity” value is listed as “D”.

As to `COc1ccnc(C(=O)NC(C)C(=O)OC(C)C(Oc2cccc(F)c2)C(C)C)c1O` (stereo not shown) [Cmpd 390], the “PUCCRT 1DP disease control rating, HV activity” value with Puccinia triticina (setting [5]) is recorded as “A (> 80)”. Also, the “PUCCRT 3DC disease control rating, HV activity” value with Puccinia triticina (setting [6]) was “A (> 80)”. Further, the “SEPTTR 1DP disease control rating, HV activity” value in the experiment on Zymoseptoria tritici (setting [7]) is given as “B (≤ 80)”. Besides, in the experiment on Zymoseptoria tritici (setting [8]), the “SEPTTR 3DC disease control rating, HV activity” value is “A (> 80)”.

Consider `COc1ccnc(C(=O)N[C@@H](C)C(=O)O[C@@H](C)[C@H](Oc2ccc(Cl)cc2)C2CCCC2)c1O` [Cmpd 842], for which the “PUCCRT 1DP disease control rating, HV activity at 100 ppm” value with Puccinia triticina (setting [9]) is “A (> 80)”. Moreover, in the experiment with Puccinia triticina (setting [10]), the “PUCCRT 3DC disease control rating, HV activity at 100 ppm” value is on record as “A (> 80)”. Moreover, the “SEPTTR 1DP disease control rating, HV activity at 100 ppm” value in the experiment on Zymoseptoria tritici (setting [9]) was “A (> 80)”. Also, the “SEPTTR 3DC disease control rating, HV activity at 100 ppm” value in the experiment with Zymoseptoria tritici (setting [10]) is reported as “B (≤ 80)”.

For `C=CC[C@@H](Oc1ccc(Cl)cc1Cl)[C@H](C)OC(=O)[C@H](C)NC(=O)c1nccc(OC)c1OCOC(C)=O` [Cmpd 700], the “PUCCRT 1DP disease control rating, LV activity at 125.1 g/H” value with Puccinia triticina (setting [1]) is given as “A (> 80)”. The “PUCCRT 3DC disease control rating, LV activity at 125.1 g/H” value with Puccinia triticina (setting [2]) is recorded as “A (> 80)”. Moreover, the “SEPTTR 1DP disease control rating, LV activity at 125.1 g/H” value in the experiment on Zymoseptoria tritici (setting [1]) is recorded as “D”. The “SEPTTR 3DC disease control rating, LV activity at 125.1 g/H” value in the experiment with Zymoseptoria tritici (setting [2]) is given as “B (≤ 80)”.

For the compound `COc1ccnc(C(=O)N[C@@H](C)C(=O)O[C@@H](C)[C@H](Oc2ccc(C)cc2)C(C)(C)C)c1OC(C)=O` [Cmpd 1059], the “LV activity at 125.1 g/H PUCCRT 1DP (disease control rating)” value with Puccinia triticina (low volume application, 125.1 g/H, 1 Day Protectant, wheat brown rust) was “A (> 80)”. Besides, the “LV activity at 125.1 g/H PUCCRT 3DC (disease control rating)” value with Puccinia triticina (low volume application, 125.1 g/H, 3 Day Curative, wheat brown rust) is listed as “A (> 80)”. The “LV activity at 125.1 g/H SEPTTR 1DP (disease control rating)” value with Zymoseptoria tritici (low volume application, 125.1 g/H, 1 Day Protectant, wheat leaf blotch) is “B (≤ 80)”. Besides, the “LV activity at 125.1 g/H SEPTTR 3DC (disease control rating)” value with Zymoseptoria tritici (low volume application, 125.1 g/H, 3 Day Curative, wheat leaf blotch) is listed as “B (≤ 80)”.

As to `COc1ccnc(C(=O)NC(C)C(=O)OC(C)C(Oc2ccccc2)c2cccs2)c1OC(C)=O` (stereo not shown) [Cmpd 690], in the experiment on Puccinia triticina (setting [1]), the “PUCCRT 1DP disease control rating, LV activity at 125.1 g/H” value was “B (≤ 80)”. Moreover, in the experiment with Puccinia triticina (setting [2]), the “PUCCRT 3DC disease control rating, LV activity at 125.1 g/H” value was “B (≤ 80)”. Moreover, the “SEPTTR 1DP disease control rating, LV activity at 125.1 g/H” value with Zymoseptoria tritici (setting [1]) was “B (≤ 80)”. The “SEPTTR 3DC disease control rating, LV activity at 125.1 g/H” value in the experiment with Zymoseptoria tritici (setting [2]) was “B (≤ 80)”.

For the compound `COc1ccnc(C(=O)NC(C)C(=O)OC(C)COCC(C)C)c1OCOC(C)=O` (stereo not shown) [Cmpd 533], in the experiment with Puccinia triticina (setting [3]), the “PUCCRT 1DP, LV activity at 125.1 g/H (% Control rating)” value is listed as “D”. Besides, the “PUCCRT 3DC, LV activity at 125.1 g/H (% Control rating)” value with Puccinia triticina (setting [4]) is listed as “A (> 80)”. Besides, in the experiment with Zymoseptoria tritici (setting [3]), the “SEPTTR 1DP, LV activity at 125.1 g/H (% Control rating)” value was “D”. For the same compound, the “SEPTTR 3DC, LV activity at 125.1 g/H (% Control rating)” value in the experiment with Zymoseptoria tritici (setting [4]) was “A (> 80)”.

In the case of `CCCC(NC(=O)c1nccc(OC)c1OCOC(C)=O)C(=O)OC(C)C(CCc1ccccc1)OCC(C)C` (stereo not shown) [Cmpd 444], the “PUCCRT 1DP disease control rating, HV activity” value in the experiment on Puccinia triticina (setting [5]) is “A (> 80)”. The “PUCCRT 3DC disease control rating, HV activity” value in the experiment on Puccinia triticina (setting [6]) was “B (≤ 80)”. In addition, the “SEPTTR 1DP disease control rating, HV activity” value with Zymoseptoria tritici (setting [7]) is on record as “A (> 80)”. Also, the “SEPTTR 3DC disease control rating, HV activity” value with Zymoseptoria tritici (setting [8]) is recorded as “A (> 80)”.
